We go through one molecule from paper PMC7890489, “Study on pharmacological properties and cell absorption metabolism of novel daidzein napsylates” (Royal Society Open Science, 2021).

Data set [1] in a line: Apparent lipid-water (n-octanol/water) partition coefficient by HPLC. Details: key: —: Cannot be detected. Type of data set: physicochemical. As to the method: Mobile phase: acetonitrile-methanol (1 : 1); flow rate: 1.0 ml min^−1; injection volume: 20 µl; wavelength: 230 nm or 254 nm; column temperature: 25°C.
DD4 (5.1 mg) was dissolved in 50 ml of water-saturated n-octanol solution to prepare a solution with a concentration of 102 mg l^−1. Solution (2 ml) and water-saturated n-octanol solution (2 ml) were added to a plugged 10 ml tube. The prepared sample solution was placed in a shaker and shaken to equilibrium overnight in the dark at constant temperature (37 ± 0.1)°C. The lower aqueous phase was taken and analysed by HPLC after centrifugation at a speed of 3000 r min^−1 for 10 min. The drug concentration in the aqueous phase (ρw) was calculated via the standard curve according to the peak area. DD5 (4.5 mg) was dissolved in 50 ml of water-saturated n-octanol solution to prepare a solution with a concentration of 90 mg l^−1. Other methods were the same as those for DD4 [14].

Data set [2] concerns human aortic vascular smooth muscle cells (HAVSMCs). The data set can be described thus: Drug absorption in human aortic vascular smooth muscle cells (HPLC of cell supernatant). The data set is classed as in vitro ADME. The note with it: for value (drug concentration in cell supernatant): dosing DD4 171, DD5 120 ug/mL. On the procedure: HAVSMCs were obtained from resuscitation in cryopreservation tubes. HAVSMCs at passages 3–10 were seeded at a density of 10^5 in 6-well plates, 2 ml per well. The cells were cultured at 37°C in a 5% carbon dioxide incubator for 24 h to adhere to the cell wall; cells were cultured in serum-free DMEM for 24 h. The cells were synchronized, the supernatant was carefully aspirated and different concentrations of drug solution were added to the DMEM culture medium containing 10% serum. Equal amounts of DMEM culture medium without drugs were added to the blank group. Each group was set up in triplicate and further cultured. The cultures were terminated at 0.5, 1, 6, 12, 24 or 48 h. Cell culture supernatants were collected and stored at −80°C for further analysis.
Cell supernatants were thawed at room temperature and vortexed for 1 min. To 50 µl of the cell supernatant, 50 µl of methanol was added and the mixtures were mixed uniformly by eddy current. Ethyl acetate (1 ml) was added to the mixture and vortexed for 3 min. Ethyl acetate was separated by cooled centrifugation at 3000 r min^−1 and dried with nitrogen, and the residue was dissolved in 500 µl of methanol before injection for analysis.
Mobile phase: methanol-phosphoric acid solution (0.4%) (1 : 1); flow rate: 0.5 ml min^−1; injection volume: 10 µl; wavelength: 230 nm or 254 nm; column temperature 25°C.
Cell supernatants were thawed and vortexed for 1 min. Drug-added supernatant (50 µl) was treated by the same method as the pre-treatment of cell samples described in §4.2.
The absorption and utilization rates of DD4 and DD5 were calculated by the formula (6.1), with the reduction of drug concentration in the cell culture medium taken as the absorption amount of drug by cells. The initial drug concentration was c0, and the concentration in the cell supernatant at other time points is denoted as c. […] With increasing time, the cell absorption rate of the drug was maintained at about 60%. The main reason for the differences in absorption of DD4 and DD5 might be the length of the substituent group (methyl, ethyl) on the 7-position:6.1 absorption rate=c0−c/c0×100%.

Data set [3] deals with vascular smooth muscle cells. The data set is described as follows: Cytotoxicity by MTT assay. The data set is classed as cell-based. The note with it: 300 ug/mL. The source says:
[…] 2) Please list the full name of “HAVSMCs”at the first time it appears.
We have listed the full name of “HAVSMCs” as its first appearance in the abstract of […]
[…] 3) Please number the carbon atoms of the compounds.
[…] 4) Line 19-36: The abstract can reflect all aspects of the work, but it is a bit long and too detailed. The authors should rephrase the abstract for a more concise […]
We have rewritten the section of abstract and tried to make it as concise as possible.
[…] 5) As far as I'm aware, daidzein as a biologically active natural product has been used for curing angiocardiopathy. But whether the synthesized daidzeinnapsylates have significant toxic side effects remain unknown. So, in vitro cytotoxicity […]
A549, HeLa cells) need be performed.
The cytotoxicity of DD4 and DD5 was determined by MTT assay in our lab before […]
the two compounds was less than 10% at the concentration of 300 ug/mL. It is considered that the compound is not toxic to vascular smooth muscle cells at this concentration. Therefore, the dosing concentrations of DD4 and DD5 were 171 and 120 ug/mL, respectively, to investigate the absorption and metabolism of drugs by […]
6)Please attach the 1H-NMR specturm of DD4 and DD5 in supporting information;

Data set [4] in a line: Solubility in water, methanol, cyclohexane and ethyl acetate by HPLC. Type of data set: physicochemical. The note with it: organic solvent or mixture, thermodynamic from solid, head: hexane (text: cyclohexane), 37 °C, shaken 48 h.

≈ marks a conversion by molar mass, not a printed value. Where “and” joins values, the source holds several entries; their conditions need not be identical. Equal values may be shown once.

With `CCOc1ccc2c(=O)c(-c3ccc(OS(=O)(=O)c4ccc5ccccc5c4)cc3)coc2c1` [DD5], the melting point is 151 to 153 °C. Further, in data set [1] (37 °C, HPLC of aqueous phase), the lgP result was “—^b”. Also, in data set [1] (HPLC), the “apparent lipid-hydro partition coefficient found” value is on record as “—^b”. The “time of peak (maximum) absorption” value in data set [2] was 1 h. Moreover, the “value (drug concentration in cell supernatant)” value (from here on “value”) in data set [2] (0.5 h) is 88.31 ± 4.25 µg/mL. Moreover, the “value” value in data set [2] (1 h) is 11.59 ± 0.08 µg/mL. Also, the “value” value in data set [2] (6 h) was 44.60 ± 3.91 µg/mL. Besides, the “value” value in data set [2] (12 h) is 47.13 ± 15.99 µg/mL. Moreover, the “value” value in data set [2] (24 h) came to 50.34 ± 1.31 µg/mL. Moreover, the “value” value in data set [2] (48 h) turned out to be 29.29 ± 2.50 µg/mL. Also, the “maximum cell absorption rate relative to DAI” value in data set [2] (compared with DAI) is 4.5 times and 4.3–4.5 times. Also, the “absorptivity (maximum absorption rate)” value in data set [2] (maximum (at 1 h)) is given as 90.34%. Also, the cell inhibition rate entry in data set [3] is “less than 10%”. Moreover, the solubility at 48 h in data set [4] came to 69.7 ± 20.8 µg/mL (≈ 148 µM).
